Data on eleven molecules can be found in ChEMBL document CHEMBL1201862, “PubChem BioAssay data set” (2004).

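Following 48 hours of exposure in 96-well plates, responses at five concentrations were used to interpolate endpoints linearly. Here, GI50 denotes the concentration required for 50% inhibition of growth.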 Calls of active or inactive are those of the source. Cut-off read from the data, not from the text of the source: active = GI50 up to about 1.1 µM and inactive = higher.

Among the test systems are MOLT-4; IGROV-1; COLO 205; A549; LXFL 529; Malme-3M; HCT-116; SF-539; SW-620; SN12C; SF-295; SK-MEL-5; NCI-H23; SNB-75; T47D; MCF7; HL-60; CCRF-CEM; MDA-MB-435; HOP-62.
Common to all, as to assay: inhibition of tumour cell growth, NCI panel, 48 h

On to `CCOC(=O)c1ccc(N2C(=O)/C(=C\OC)c3ccccc3C2=O)cc1`, for which the GI50 in the assay on MOLT-4 is 25.5 µM (inactive); in the assay on IGROV-1, 25.2 µM (inactive); in the assay on COLO 205, 94.4 µM (inactive); in the assay with A549 it was 43.3 µM (inactive); with LXFL 529, 23.6 µM (inactive); in the assay with Malme-3M it was 18.7 µM (inactive). Also, the GI50 in the assay with HCT-116 is 34.6 µM (inactive); in the assay on SF-539, 32.4 µM (inactive); in the assay with SW-620, 33.8 µM (inactive); in the assay with SN12C, 24.5 µM (inactive); in the assay with SF-295 it was 33.4 µM (inactive); in the assay on SK-MEL-5, 70.8 µM (inactive). The GI50 is 37.2 µM (inactive) in the assay on NCI-H23 and 25.5 µM (inactive) in the assay with SNB-75.
On to `COc1ccc(C2SCC(=O)N2NC(=O)C(C)Oc2ccccc2C)cc1` (centres undefined), for which the GI50 with MOLT-4 was 31 µM (inactive); in the assay with IGROV-1, > 100 µM (inactive); in the assay on T47D it was 46.3 µM (inactive); in the assay on COLO 205, > 100 µM (inactive); with MCF7, 54.1 µM (inactive); in the assay on A549 it was 61.4 µM (inactive). The GI50 in the assay on Malme-3M was > 100 µM (inactive); with HCT-116, 57.5 µM (inactive); in the assay with HL-60, 28.7 µM (inactive); in the assay on CCRF-CEM, 65.2 µM (inactive); in the assay with SF-539, > 100 µM (inactive); with SW-620, > 100 µM (inactive). Moreover, the GI50 was 82.8 µM (inactive) in the assay on MDA-MB-435; 87.7 µM (inactive) with SN12C; 60.8 µM (inactive) in the assay with SF-295; 53 µM (inactive) in the assay on SK-MEL-5; > 100 µM (inactive) in the assay on HOP-62; 55.6 µM (inactive) in the assay with NCI-H23. The GI50 in the assay on SNB-75 is > 100 µM (inactive).
As to `CC(C)[C@H]1NC(=O)[C@H]2N=C(O[C@@H]2C)[C@@H]2CCCN2C(=O)[C@H](Cc2ccccc2)NC(=O)[C@@H]2COC(=N2)[C@@H](Cc2ccccc2)NC(=O)[C@@H]2COC1=N2`, the GI50 with MOLT-4, in the assay with IGROV-1, in the assay on T47D, in the assay on COLO 205, in the assay with MCF7 and in the assay on A549 was > 100 µM (inactive) each time. The GI50 with Malme-3M, in the assay with HCT-116, in the assay on HL-60, with CCRF-CEM, in the assay with SF-539 and in the assay with SW-620 was > 100 µM (inactive) each time. Also, the GI50 in the assay with MDA-MB-435, with SN12C, in the assay on SF-295, with SK-MEL-5, in the assay on HOP-62 and in the assay on NCI-H23 was > 100 µM (inactive) throughout. Also, the GI50 with SNB-75 was 0.428 µM (active).
For the molecule `N#Cc1c(-c2nc3ccccc3s2)c(=O)oc2cc(O)ccc12`, the GI50 was 28 µM (inactive) with MOLT-4; 15.3 µM (inactive) in the assay on IGROV-1; 17.7 µM (inactive) with T47D; 13.3 µM (inactive) with COLO 205; 34.5 µM (inactive) in the assay with MCF7; 26.9 µM (inactive) with A549. The GI50 is 18.3 µM (inactive) in the assay with Malme-3M; 31.5 µM (inactive) in the assay on HCT-116; 23.5 µM (inactive) with HL-60; 25.4 µM (inactive) with CCRF-CEM; > 100 µM (inactive) with SF-539; 30.8 µM (inactive) in the assay on SW-620. Moreover, the GI50 was 27.8 µM (inactive) in the assay on MDA-MB-435; 42.3 µM (inactive) with SN12C; 36.4 µM (inactive) with SF-295; 10.2 µM (inactive) in the assay on SK-MEL-5; 16.7 µM (inactive) in the assay on HOP-62; 24.8 µM (inactive) in the assay on NCI-H23. Besides, in the assay with SNB-75, the GI50 was > 100 µM (inactive).
As for `CC1(C)CC(=O)C(CCC(=O)/C=C/c2ccccc2)C(=O)C1`, the GI50 with MOLT-4 is 34 µM (inactive); with IGROV-1 it was > 100 µM (inactive); in the assay on T47D, > 100 µM (inactive); in the assay on COLO 205, > 100 µM (inactive); with MCF7 it was > 100 µM (inactive); in the assay on A549, > 100 µM (inactive). The GI50 was > 100 µM (inactive) in the assay with Malme-3M; > 100 µM (inactive) in the assay on HCT-116; 2.51 µM (inactive) with HL-60; > 34.9 µM (inactive) in the assay with CCRF-CEM; > 100 µM (inactive) in the assay with SF-539; > 100 µM (inactive) with SW-620. The GI50 in the assay with MDA-MB-435, in the assay on SN12C, in the assay with SF-295, in the assay with SK-MEL-5, in the assay with HOP-62 and in the assay on NCI-H23 was > 100 µM (inactive) throughout. Also, the GI50 in the assay with SNB-75 was > 100 µM (inactive).
In the case of `O=C(CCl)Nc1ccc(-c2nc3ccccc3s2)cc1`, the GI50 in the assay with MOLT-4 was 1.74 µM (inactive); with IGROV-1, 1.34 µM (inactive); in the assay with T47D, 1.53 µM (inactive); in the assay on COLO 205, 2.07 µM (inactive); with MCF7, 0.184 µM (active); with A549 it was 10 µM (inactive). Besides, the GI50 in the assay on Malme-3M was 2.07 µM (inactive); in the assay on HCT-116 it was 2.16 µM (inactive); in the assay on HL-60, 1.91 µM (inactive); in the assay on CCRF-CEM it was 0.94 µM (active); in the assay with SF-539 it was 3.04 µM (inactive); in the assay with SW-620 it was 2.21 µM (inactive). The GI50 in the assay on MDA-MB-435 is 4.03 µM (inactive); in the assay with SN12C, 1.87 µM (inactive); in the assay with SF-295, 6.92 µM (inactive); with SK-MEL-5, 1.6 µM (inactive); in the assay with HOP-62, 3.72 µM (inactive); in the assay on NCI-H23, 2.96 µM (inactive). Moreover, the GI50 in the assay on SNB-75 is 4.06 µM (inactive).
For `O=C(O)C1C2C=CC(O2)C1C(=O)Nc1ncccn1` (centres undefined), the GI50 in the assay with MOLT-4, in the assay with IGROV-1, with T47D, with COLO 205, in the assay with MCF7 and in the assay on A549 was > 100 µM (inactive) throughout. The GI50 with Malme-3M, in the assay with HCT-116, with HL-60, with CCRF-CEM, in the assay on SF-539 and in the assay on SW-620 was > 100 µM (inactive) throughout. For the same molecule, the GI50 in the assay with MDA-MB-435, with SN12C, with SF-295, with SK-MEL-5, in the assay on HOP-62 and in the assay on NCI-H23 was > 100 µM (inactive) in each case. For the same molecule, the GI50 with SNB-75 was > 100 µM (inactive).
With `CCOC(=O)c1cc2c(OC)cc(OC)cc2oc1=O`, the GI50 in the assay with MOLT-4, with IGROV-1, with T47D, with COLO 205, with MCF7 and with A549 was > 100 µM (inactive) in each case. The GI50 with Malme-3M, in the assay with HCT-116, with HL-60, in the assay with CCRF-CEM, with SF-539 and in the assay on SW-620 was > 100 µM (inactive) throughout. Further, the GI50 is > 100 µM (inactive) with MDA-MB-435; > 100 µM (inactive) with SN12C; 50 µM (inactive) in the assay on SF-295; > 100 µM (inactive) in the assay with SK-MEL-5; 65.3 µM (inactive) in the assay on HOP-62; 63.8 µM (inactive) with NCI-H23. Moreover, the GI50 in the assay with SNB-75 was 38.5 µM (inactive).
`CCOC(=O)COc1ccc(/C=C/C(=O)c2ccc(OC)cc2)cc1`: the GI50 is 42.9 µM (inactive) in the assay with MOLT-4; 45.2 µM (inactive) in the assay with IGROV-1; 39.7 µM (inactive) with T47D; 35.4 µM (inactive) in the assay on COLO 205; 30.7 µM (inactive) in the assay with MCF7; 58.1 µM (inactive) with A549. Moreover, the GI50 in the assay with Malme-3M was 28.2 µM (inactive); with HCT-116, 21.3 µM (inactive); in the assay with HL-60 it was 27 µM (inactive); in the assay with CCRF-CEM, 20.9 µM (inactive); in the assay with SF-539, 19.6 µM (inactive); in the assay on SW-620, 20.7 µM (inactive). The GI50 in the assay with MDA-MB-435 was 16.8 µM (inactive); in the assay on SN12C, 19 µM (inactive); in the assay on SF-295 it was 29 µM (inactive); in the assay with SK-MEL-5, > 10 µM (inactive); in the assay on HOP-62, 20.8 µM (inactive); with NCI-H23, 25.8 µM (inactive). The GI50 in the assay with SNB-75 is 65.3 µM (inactive).
On to `CCOC(=O)CCNC(=O)c1cc(C)cc2c1Oc1c(cc(C)cc1C(=O)NCCC(=O)OCC)S2`, for which the GI50 is > 100 µM (inactive) in the assay on MOLT-4; > 100 µM (inactive) with IGROV-1; 28.8 µM (inactive) in the assay with T47D; > 100 µM (inactive) in the assay on COLO 205; 57.1 µM (inactive) in the assay on MCF7; 64 µM (inactive) with A549. Also, the GI50 was > 100 µM (inactive) in the assay on Malme-3M; 24.9 µM (inactive) in the assay on HCT-116; > 100 µM (inactive) in the assay with HL-60; > 100 µM (inactive) in the assay with CCRF-CEM; 50.4 µM (inactive) in the assay on SF-539; > 100 µM (inactive) in the assay on SW-620. Further, the GI50 was > 100 µM (inactive) in the assay with MDA-MB-435; > 100 µM (inactive) in the assay on SN12C; 53.5 µM (inactive) with SF-295; 35.9 µM (inactive) in the assay with SK-MEL-5; 56.4 µM (inactive) with HOP-62; > 100 µM (inactive) in the assay on NCI-H23. For the same molecule, the GI50 with SNB-75 is 20.7 µM (inactive).
For `O=C(O)CCCCn1ccc(=O)[nH]c1=O`, the GI50 in the assay with MOLT-4, in the assay with IGROV-1, in the assay with T47D, with COLO 205, in the assay with MCF7 and in the assay with A549 was > 100 µM (inactive) throughout. Moreover, the GI50 in the assay with Malme-3M, with HCT-116, in the assay with HL-60, in the assay on CCRF-CEM, with SF-539 and in the assay with SW-620 was > 100 µM (inactive) throughout. Further, the GI50 in the assay on MDA-MB-435, in the assay on SN12C, in the assay with SF-295, in the assay with SK-MEL-5, with HOP-62 and in the assay on NCI-H23 was > 100 µM (inactive) in each case. Besides, the GI50 with SNB-75 is > 100 µM (inactive).
